According to patent US5171835A, “LHRH antagonists” (The Administrators of the Tulane Educational Fund, priority 1991, dated 1992):

Experiments:
[1] = system: ovulation in 4-day-cycling rats; assay: In vivo antiovulatory activity in 4-day-cycling rats; set-up: species or system rat
Experimental: (b) In vivo antiovulatory activity of peptides is determined in 4-day-cycling rats as described [A. Corbin and C. W. Beattie, Endocr. Res. Commun., 2, 1-23 (1975)].

[2] = system: perfused rat pituitary cell system (LH response to LH-RH); assay: LH-RH inhibiting activity in superfused rat pituitary cell system; assay type: cell-based
Experimental: Immediately after that, a mixture containing the same concentration of peptide and 3 nM LHRH is administered for 3 min. This was followed by four consecutive infusions of 3 nM LHRH for 3 min (1 ml perfusate) at 30 min intervals (30, 60, 90, 120 min). LH content of the 1 ml fractions collected is determined by radioimmunoassay (RIA).

[3] = system: membrane receptors of human breast cancer cells; assay: Receptor binding, human breast cancer cell membranes (125I-[D-Trp6]LHRH as labelled ligand); settings: 125I-[D-Trp]6 LHRH labelled ligand; for Affinity Constant Ka 1: NB = no binding
Experimental: Affinity of peptides to rat pituitary and human breast cancer cell membranes is determined by using labelled LHRH and [D-Trp^6 ]LHRH. The assay is carried out similarly to that described by T. Kadar et al., Proc. Natl. Acad. Sci. USA, 85, 890-894 (1988) and M. Fekete et al., Endocrinology, 124, 946-955 (1989).

[4] = antagonist to LH-RH ratio 1:1, 0 min
[5] = antagonist to LH-RH ratio 1:1, 30 min
[6] = antagonist to LH-RH ratio 1:1, 60 min
[7] = antagonist to LH-RH ratio 1:1, 90 min
[8] = antagonist to LH-RH ratio 3:1, 0 min
[9] = antagonist to LH-RH ratio 3:1, 30 min
[10] = antagonist to LH-RH ratio 3:1, 60 min
[11] = antagonist to LH-RH ratio 3:1, 90 min

Substance | % Blockade of Ovulation ([1]; dose 1.5 μg) | % inhibition of LH response [2, 4] | % inhibition of LH response [2, 5] | % inhibition of LH response [2, 6] | % inhibition of LH response [2, 7] | % inhibition of LH response [2, 8] | % inhibition of LH response [2, 9] | % inhibition of LH response [2, 10] | % inhibition of LH response [2, 11] | Affinity Constant Ka 2 [3] | Affinity Constant Ka 1 [3] | % Blockade of Ovulation ([1]; dose 0.75 μg) | % Blockade of Ovulation ([1]; dose is 0.375 μg)
Ac-D-Nal(2)-D-Phe(4Cl)-D-Pal(3)-Ser-Tyr-D-Lys[DL-A2 bu(Car)2 ]-Leu-Arg-Pro-D-Ala-NH2 [Peptide 16] | 33% | 52% | 33% | 24% | 28% | – | – | – | – | – | – | – | –
Ac-D-Nal(2)-D-Phe(4Cl)-D-Pal(3)-Ser-Tyr-D-Lys[DL-A2 bu]-Leu-Arg-Pro-D-Ala-NH2 [Peptide 26] | – | 70% | 52% | 37% | – | 90% | 75% | 62% | 57% | – | – | – | –
Ac-D-Nal(2)-D-Phe(4Cl)-D-Trp-Ser-Arg-D-Lys[A2 pr(Ac)2 ]-Leu-Arg-Pro-D-Ala-NH2 [Peptide 23] | – | – | – | – | – | 52% | 22% | 21% | 22% | 0.14 µM⁻¹ | 6.87 nM⁻¹ | – | –
Ac-D-Nal(2)-D-Phe(4Cl)-D-Pal(3)-Ser-Tyr-D-Lys[A2 pr(CHC)2 ]-Leu-Arg-Pro-D-Ala-NH2 [Peptide 12] | – | – | – | – | – | – | – | – | – | 3.57 µM⁻¹ | 1.68 nM⁻¹ | – | –
Ac-D-Nal(2)-D-Phe(4Cl)-D-Pal(3)-Ser-Arg-D-Lys[A2 pr(Car)2 ]-Leu-Arg-Pro-D-Ala-NH2 [Peptide 1] | – | 80% | 46% | 31% | – | 95% | 59% | 55% | 52% | 3.15 µM⁻¹ | 7.07 nM⁻¹ | – | –
Ac-D-Nal(2)-D-Phe(4Cl)-D-Pal(3)-Ser-Tyr-D-Lys[DL-A2 bu(PRL)2 ]-Leu-Arg-Pro-D-Ala-NH2 [Peptide 18] | – | – | – | – | – | 90% | 71% | 58% | 54% | 6.17 µM⁻¹ | 21.18 nM⁻¹ | 75% | –
Ac-D-Nal(2)-D-Phe(4Cl)-D-Trp-Ser-Arg-D-Lys[A2 pr(Car)2 ]-Leu-Arg-Pro-D-Ala-NH2 [Peptide 22] | – | – | – | – | – | 64% | 22% | 24% | – | 2.67 µM⁻¹ | 4.09 nM⁻¹ | – | –
Ac-D-Nal(2)-D-Phe(4Cl)-D-Pal(3)-Ser-Tyr-D-Lys[A2 pr(For)2 ]-Leu-Arg-Pro-D-Ala-NH2 [Peptide 10] | 100% | – | – | – | – | – | – | – | – | 2.11 µM⁻¹ | 48.29 nM⁻¹ | 67% | –
Ac-D-Nal(2)-D-Phe(4Cl)-D-Pal(3)-Ser-Tyr-D-Lys[A2 pr]-Leu-Arg-Pro-D-Ala-NH2 [Peptide 25] | – | 57% | 49% | 43% | – | 85% | 69% | 62% | 57% | 1.29 µM⁻¹ | 3.49 nM⁻¹ | – | –
Ac-D-Nal(2)-D-Phe(4Cl)-D-Pal(3)-Ser-Arg-D-Lys[A2 pr(EtCar)2 ]-Leu-Arg-Pro-D-Ala-NH2 [Peptide 4] | – | – | – | – | – | 91% | 50% | 42% | 41% | 0.05 µM⁻¹ | 9.71 nM⁻¹ | – | –
Ac-D-Nal(2)-D-Phe(4Cl)-D-Pal(3)-Ser-Tyr-D-Lys[DL-A2 bu(LAU)2 ]-Leu-Arg-Pro-D-Ala-NH2 [Peptide 19] | – | 20% | 20% | 0% | 0% | – | – | – | – | 0 µM⁻¹ | 0 nM⁻¹ | – | –
Ac-D-Nal(2)-D-Phe(4Cl)-D-Pal(3)-Ser-Arg-D-Lys[A2 pr(Ac)2 ]-Leu-Arg-Pro-D-Ala-NH2 [Peptide 2] | – | 26% | 27% | 29% | 25% | 88% | 41% | 13% | – | 0.32 µM⁻¹ | 16.35 nM⁻¹ | – | –
Ac-D-Nal(2)-D-Phe(4Cl)-D-Pal(3)-Ser-Arg-D-Lys[A2 pr(For)2 ]-Leu-Arg-Pro-D-Ala-NH2 [Peptide 3] | – | – | – | – | – | 93% | 43% | 26% | 24% | – | – | – | –
Ac-D-Nal(2)-D-Phe(4Cl)-D-Trp-Ser-Arg-D-Lys[A2 pr(For)2 ]-Leu-Arg-Pro-D-Ala-NH2 [Peptide 24] | 50% | 36% | 11% | 0% | 9% | 58% | 5% | 18% | 27% | – | – | – | –
Ac-D-Nal(2)-D-Phe(4Cl)-D-Pal(3)-Ser-Tyr-D-Lys[DL-A2 bu(For)2 ]-Leu-Arg-Pro-D-Ala-NH2 [Peptide 15] | 100% | 44% | 41% | 22% | 23% | 99% | 60% | 34% | 21% | – | – | – | 25%
Ac-D-Nal(2)-D-Phe(4Cl)-D-Pal(3)-Ser-Tyr-D-Lys[DL-A2 bu(Ac)2 ]-Leu-Arg-Pro-D-Ala-NH2 [Peptide 14] | 20% | – | – | – | – | 80% | 63% | 51% | 53% | 0.28 µM⁻¹ | 4.83 nM⁻¹ | – | –
Ac-D-Nal(2)-D-Phe(4Cl)-D-Pal(3)-Ser-Tyr-D-Lys[A2 pr(EtCar)2 ]-Leu-Arg-Pro-D-Ala-NH2 [Peptide 9] | 50% | – | – | – | – | 90% | 72% | – | – | 8.57 µM⁻¹ | 30.92 nM⁻¹ | 20% | –
